Assay results from patent US20220227737A1, “NOVEL OXALYL PIPERAZINES ACTIVE AGAINST THE HEPATITIS B VIRUS (HBV)” (AiCuris GmbH & Co. KG, priority 2019, published 2022).

Legend:
HBV = HBV replication assay: HBV DNA from the supernatants of HepAD38 cells; assay type: cell-based; conditions: Hepatitis B virus, 144 h, HBV DNA in supernatant at day 6, read-out: Cell Activity
Experimental: Determination of HBV DNA from the Supernatants of HepAD38 Cells
The anti-HBV activity was analysed in the stable transfected cell line HepAD38, which has been described to secrete high levels of HBV virion particles (Ladner et al., 1997). In brief, HepAD38 cells were cultured at 37° C. at 5% CO2 and 95% humidity in 200 μl maintenance medium, which was Dulbecco's modified Eagle's medium/Nutrient Mixture F-12 (Gibco, Karlsruhe), 10% fetal bovine serum (PAN Biotech Aidenbach) supplemented with 50 μg/ml penicillin/streptomycin (Gibco, Karlsruhe), 2 mM L-glutamine (PAN Biotech, Aidenbach), 400 μg/ml G418 (AppliChem, Darmstadt) and 0.3 μg/ml tetracycline. Cells were subcultured once a week in a 1:5 ratio, but were usually not passaged more than ten times. For the assay 60,000 cells were seeded in maintenance medium without any tetracycline into each well of a 96-well plate and treated with serial half-log dilutions of test compound. To minimize edge effects the outer 36 wells of the plate were not used but were filled with assay medium. On each assay plate six wells for the virus control (untreated HepAD38 cells) and six wells for the cell control (HepAD38 cells treated with 0.3 μg/ml tetracycline) were allocated, respectively. In addition, one plate set with reference inhibitors like BAY 41-4109, entecavir, and lamivudine instead of screening compounds were prepared in each experiment. In general, experiments were performed thrice in triplicates. At day 6 HBV DNA from 100 μl filtrated cell culture supernatant (AcroPrep Advance 96 Filter Plate, […] Supor membran, PALL GmbH, Dreieich) was automatically purified on the MagNa Pure LC instrument using the MagNA Pure 96 DNA and Viral NA Small Volume Kit (Roche Diagnostics, Mannheim) according to the instructions of the manufacturer. EC50 values were calculated from relative copy numbers of HBV DNA In brief, 5 μl of the 100 μl eluate containing HBV DNA were subjected to PCR LC480 Probes Master Kit (Roche) together with 1 μM antisense primer […], 0.5 μM sense primer […], 0.3 μM hybprobes […]-FL and LC640-[…]-PH (TIBMolBiol, Berlin) to a final volume of […]. The PCR was performed on the Light Cycler 480 real time system (Roche Diagnostics, Mannheim) using the following protocol: Pre-incubation for 1 min at 95° C., amplification: 40 cycles×(10 sec at 95° C., 50 sec at 60° C., 1 sec at 70° C.), cooling for 10 sec at 40° C. Viral load was quantitated against known standards using HBV plasmid DNA of pCH-9/3091 (Nassal et al., 1990, Cell 63: 1357-1363) and the LightCycler 480 SW 1.5 software (Roche Diagnostics, Mannheim) and EC50 values were calculated using non-linear regression with GraphPad Prism 6 (GraphPad Software Inc., La Jolla, USA).

[1] = biological target: T1, C-terminal truncated core protein (HBV core dimer, BODIPY-FL labelled) (UniProt P03146); experiment: Biochemical capsid assembly assay (fluorescence quenching)
T1 construct: fused on or other part: One added cysteine at position 150, labelled with BODIPY-FL maleimide; The C-terminal arginine-rich domain is absent
T1 sequence (P03146 whole entry, the tested form may be a part): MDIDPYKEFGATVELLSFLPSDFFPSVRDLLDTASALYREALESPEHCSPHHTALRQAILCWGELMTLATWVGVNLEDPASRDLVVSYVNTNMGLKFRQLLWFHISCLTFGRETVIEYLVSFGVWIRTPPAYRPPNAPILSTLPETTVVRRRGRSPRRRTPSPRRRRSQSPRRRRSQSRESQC
Experimental: Biochemical Capsid Assembly Assay
The screening for assembly effector activity was done based on a fluorescence quenching assay published by Zlotnick et al. (2007). The C-terminal truncated core protein containing 149 amino acids of the N-terminal assembly domain fused to a unique cysteine residue at position 150 and was expressed in E. coli using the pET expression system (Merck Chemicals, Darmstadt). Purification of core dimer protein was performed using a sequence of size exclusion chromatography steps. In brief, the cell pellet from 1 L BL21 (DE3) Rosetta2 culture expressing the coding sequence of core protein cloned NdeI/XhoI into expression plasmid pET21b was treated for 1 h on ice with a native lysis buffer (Qproteome Bacterial Protein Prep Kit; Qiagen, Hilden). After a centrifugation step the supernatant was precipitated during 2 h stirring on ice with 0.23 g/ml of solid ammonium sulfate. Following further centrifugation the resulting pellet was resolved in buffer A (100 mM Tris, pH 7.5; 100 mM NaCl; 2 mM DTT) and was subsequently loaded onto a buffer A equilibrated CaptoCore 700 column (GE HealthCare, Frankfurt). The column flow through containing the assembled HBV capsid was dialyzed against buffer N (50 mM NaHCO3 pH 9.6; 5 mM DTT) before urea was added to a final concentration of 3M to dissociate the capsid into core dimers for 1.5 h on ice. The protein solution was then loaded onto a 1 L Sephacryl 5300 column. After elution with buffer N core dimer containing fractions were identified by SDS-PAGE and subsequently pooled and dialyzed against 50 mM HEPES pH 7.5; 5 mM DTT. To improve the assembly capacity of the purified core dimers a second round of assembly and disassembly starting with the addition of 5 M NaCl and including the size exclusion chromatography steps described above was performed. From the last chromatography step core dimer containing fractions were pooled and stored in aliquots at concentrations between 1.5 to 2.0 mg/ml at −80° C.
Immediately before labelling the core protein was reduced by adding freshly prepared DTT in a final concentration of 20 mM. After 40 min incubation on ice storage buffer and DTT was removed using a Sephadex G-25 column (GE HealthCare, Frankfurt) and 50 mM HEPES, pH 7.5. For labelling 1.6 mg/ml core protein was incubated at 4° C. and darkness overnight with BODIPY-FL maleimide (Invitrogen, Karlsruhe) in a final concentration of 1 mM. After labelling the free dye was removed by an additional desalting step using a Sephadex G-25 column. Labelled core dimers were stored in aliquots at 4° C. In the dimeric state the fluorescence signal of the labelled core protein is high and is quenched during the assembly of the core dimers to high molecular capsid structures. The screening assay was performed in black 384 well microtiter plates in a total assay volume of 10 μl using 50 mM HEPES pH 7.5 and 1.0 to 2.0 μM labelled core protein. Each screening compound was added in 8 different concentrations using a 0.5 log-unit serial dilution starting at a final concentration of 100 μM, 31.6 μM or 10 μM, In any case the DMSO concentration over the entire microtiter plate was 0.5%. The assembly reaction was started by the injection of NaCl to a final concentration of […] which induces the assembly process to approximately 25% of the maximal quenched signal. […] after starting the reaction the fluorescence signal was measured using a Clariostar plate reader (BMG Labtech, Ortenberg) with an excitation of 477 nm and an emission of 525 nm. As 100% and 0% assembly control HEPES buffer containing 2.5 M and 0 M NaCl was used. Experiments were performed thrice in triplicates. EC50 values were calculated by non-linear regression analysis using the Graph Pad Prism 6 software (GraphPad Software, La Jolla, USA).

[2] = Cell viability assay (AlamarBlue); conditions: human, HepAD38 cells

`CCCCNC(=O)C(=O)N1CCN(C(=O)c2cc3c(F)cccc3[nH]2)CC1` [Example 26, N-butyl-2-(4-(4-fluoro-1H-indole-2-carbonyl)piperazin-1-yl)-2-oxoacetamide] showed an EC50 (HBV) of less than 1 µM, an IC50 [1] of less than 5 µM and a CC50 at 6 days [2] greater than 100 µM.
Work on `O=C(NCC1(O)CC1)C(=O)N1CCN(C(=O)c2cc3c(F)cc(F)cc3[nH]2)CC1` [Example 53, 2-(4-(4,6-difluoro-1H-indole-2-carbonyl)piperazin-1-yl)-N-((1-hydroxycyclopropyl)methyl)-2-oxoacetamide] yielded an EC50 (HBV) of less than 1 µM, an IC50 [1] of less than 5 µM and a CC50 at 6 days [2] greater than 100 µM.
In the case of `O=C(NC1CCOC1)C(=O)N1CCN(C(=O)c2cc3ccccc3[nH]2)CC1` (centres unmarked) [Example 35, 2-(4-(1H-indole-2-carbonyl)piperazin-1-yl)-2-oxo-N-(tetrahydrofuran-3-yl)acetamide], the EC50 (HBV) is reported as less than 1 µM, the IC50 [1] is reported as 5 to 10 µM and the CC50 at 6 days [2] is reported as greater than 100 µM.
Work on `CCC(CCO)CNC(=O)C(=O)N1CCN(C(=O)c2cc3c(F)cc(F)cc3[nH]2)CC1` (centres unmarked) [Example 59, 2-(4-(4,6-difluoro-1H-indole-2-carbonyl)piperazin-1-yl)-N-(2-ethyl-4-hydroxybutyl)-2-oxoacetamide] yielded an EC50 (HBV) of less than 1 µM, an IC50 [1] of less than 5 µM and a CC50 at 6 days [2] greater than 100 µM.
Compound `O=C(NCC1(CO)CC1)C(=O)N1CCN(C(=O)c2cc3c(F)cc(F)cc3[nH]2)CC1` [Example 55, 2-(4-(4,6-difluoro-1H-indole-2-carbonyl)piperazin-1-yl)-N-((1-(hydroxymethyl)cyclopropyl)methyl)-2-oxoacetamide] has an EC50 (HBV) of less than 1 µM, an IC50 [1] of less than 5 µM and a CC50 at 6 days [2] greater than 100 µM.
For `O=C(NC1CCCC1)C(=O)N1CCN(C(=O)c2cc3cccc(Br)c3[nH]2)CC1` [Example 7, 2-[4-(7-bromo-1H-indole-2-carbonyl)piperazin-1-yl]-N-cyclopentyl-2-oxoacetamide], the EC50 (HBV) was less than 1 µM, the IC50 [1] was 5 to 10 µM and the CC50 at 6 days [2] was greater than 100 µM.
`O=C(NCCCO)C(=O)N1CCN(C(=O)c2cc3c(F)cc(F)cc3[nH]2)CC1` [Example 54, 2-(4-(4,6-difluoro-1H-indole-2-carbonyl)piperazin-1-yl)-N-(3-hydroxypropyl)-2-oxoacetamide] gave an EC50 (HBV) of less than 1 µM, an IC50 [1] of less than 5 µM and a CC50 at 6 days [2] greater than 100 µM.
In the case of `CC(O)CCCNC(=O)C(=O)N1CCN(C(=O)c2cc3c(F)cc(F)cc3[nH]2)CC1` (centres unmarked) [Example 60, 2-(4-(4,6-difluoro-1H-indole-2-carbonyl)piperazin-1-yl)-N-(4-hydroxypentyl)-2-oxoacetamide], the EC50 (HBV) is reported as less than 1 µM, the IC50 [1] is reported as less than 5 µM and the CC50 at 6 days [2] is reported as greater than 100 µM.
For `C[C@H](O)CNC(=O)C(=O)N1CCN(C(=O)c2cc3c(F)cc(F)cc3[nH]2)CC1` [Example 58, (S)-2-(4-(4,6-difluoro-1H-indole-2-carbonyl)piperazin-1-yl)-N-(2-hydroxypropyl)-2-oxoacetamide], the EC50 (HBV) was less than 1 µM, the IC50 [1] was less than 5 µM and the CC50 at 6 days [2] was greater than 100 µM.
Compound `O=C(NCCCCCCO)C(=O)N1CCN(C(=O)c2cc3c(F)cc(F)cc3[nH]2)CC1` [Example 56, 2-(4-(4,6-difluoro-1H-indole-2-carbonyl)piperazin-1-yl)-N-(6-hydroxyhexyl)-2-oxoacetamide] has an EC50 (HBV) of 1 to 10 µM, an IC50 [1] of less than 5 µM and a CC50 at 6 days [2] greater than 100 µM.
Compound `C[C@@H](O)CNC(=O)C(=O)N1CCN(C(=O)c2cc3c(F)cc(F)cc3[nH]2)CC1` [Example 64, (R)-2-(4-(4,6-difluoro-1H-indole-2-carbonyl)piperazin-1-yl)-N-(2-hydroxypropyl)-2-oxoacetamide] has an EC50 (HBV) of less than 1 µM, an IC50 [1] of less than 5 µM and a CC50 at 6 days [2] greater than 100 µM.
`COC1(CNC(=O)C(=O)N2CCN(C(=O)c3cc4c(F)cc(F)cc4[nH]3)CC2)CC1` [Example 65, 2-(4-(4,6-difluoro-1H-indole-2-carbonyl)piperazin-1-yl)-N-((1-methoxycyclopropyl)methyl)-2-oxoacetamide] showed an EC50 (HBV) of less than 1 µM, an IC50 [1] of less than 5 µM and a CC50 at 6 days [2] greater than 100 µM.
Compound `O=C(NCCCCO)C(=O)N1CCN(C(=O)c2cc3c(F)cc(F)cc3[nH]2)CC1` [Example 62, 2-(4-(4,6-difluoro-1H-indole-2-carbonyl)piperazin-1-yl)-N-(4-hydroxybutyl)-2-oxoacetamide] has an EC50 (HBV) of less than 1 µM, an IC50 [1] of less than 5 µM and a CC50 at 6 days [2] greater than 100 µM.
For `O=C(NCCCCCO)C(=O)N1CCN(C(=O)c2cc3c(F)cc(F)cc3[nH]2)CC1` [Example 57, 2-(4-(4,6-difluoro-1H-indole-2-carbonyl)piperazin-1-yl)-N-(5-hydroxypentyl)-2-oxoacetamide], the EC50 (HBV) was 1 to 10 µM, the IC50 [1] was less than 5 µM and the CC50 at 6 days [2] was greater than 100 µM.
Work on `O=C(Nc1cccc(Br)c1)C(=O)N1CCN(C(=O)c2cc3ccccc3[nH]2)CC1` [Example 1, N-(3-bromophenyl)-2-[4-(1H-indole-2-carbonyl)piperazin-1-yl]-2-oxoacetamide] yielded an EC50 (HBV) of 1 to 10 µM.
`CCCCNC(=O)C(=O)N1CCN(C(=O)c2cc3cccc(C)c3[nH]2)CC1` [Example 24, N-butyl-2-(4-(7-methyl-1H-indole-2-carbonyl)piperazin-1-yl)-2-oxoacetamide] showed an EC50 (HBV) of less than 1 µM and a CC50 at 6 days [2] greater than 100 µM.
With `C#CCNC(=O)C(=O)N1CCN(C(=O)c2cc3ccccc3[nH]2)CC1` [Example 15, 2-(4-(1H-indole-2-carbonyl)piperazin-1-yl)-2-oxo-N-(prop-2-yn-1-yl)acetamide] the IC50 [1] was less than 5 µM.
In the case of `C[C@H]1CN(C(=O)C(=O)NC(C)(C)C)CCN1C(=O)c1cc2ccccc2[nH]1` [Example 49, (S)-2-(4-(1H-indole-2-carbonyl)-3-methylpiperazin-1-yl)-N-(tert-butyl)-2-oxoacetamide], the IC50 [1] is reported as less than 100 µM.
